# Results published in patent US12649749B2, “Preparation and application of tricyclic pyrimidinone compound and its composition” (NEUSCO BIOTECH LIMITED, priority 2020, dated 2026).
# Experiments:
# [1] = molecular target: T1, Recombinant human Lp-PLA2 enzyme (Homo sapiens, UniProt Q13093); test: Recombinant human Lp-PLA2 (rhLp-PLA2) assay (PED6 assay); type: biochemical; settings: PED6 substrate; recombinant human Lp-PLA2 at 4 nM or 110 pM; 30 min pre-incubation; fluorescence ex 480/em 540; read-out: rhLp-PLA2 (pIC50) (converted)
# T1 sequence (Q13093 22-441): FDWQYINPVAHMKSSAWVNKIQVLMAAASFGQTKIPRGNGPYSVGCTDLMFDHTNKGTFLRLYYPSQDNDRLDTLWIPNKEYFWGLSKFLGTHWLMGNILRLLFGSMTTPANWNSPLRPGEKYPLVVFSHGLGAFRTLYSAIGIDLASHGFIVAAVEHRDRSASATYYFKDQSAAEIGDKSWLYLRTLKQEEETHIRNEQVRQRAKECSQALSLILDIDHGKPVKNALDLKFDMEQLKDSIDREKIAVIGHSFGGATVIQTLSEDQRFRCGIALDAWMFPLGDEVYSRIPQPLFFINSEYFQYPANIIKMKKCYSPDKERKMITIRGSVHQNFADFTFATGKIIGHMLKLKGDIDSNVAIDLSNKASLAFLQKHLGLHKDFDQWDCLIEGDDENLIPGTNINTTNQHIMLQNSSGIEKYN
# Description: (1) Recombinant Human Lp-PLA2 (rhLp-PLA2) Assay (also Known as PED6 Assay)
# PED6 is a fluorescently labeled phospholipid that can be purchased directly from Invitogene or Molecular Probes. There is a fluorescence-quenching p-nitrophenyl group on the Sn3 position, and a Bodipy fluorescein (FL) group on the sn2 position. Once it is cleaved by the Lp-PLA2 enzyme, the FL group is released, resulting in enhanced fluorescence.
# Assay method: The compound to be tested (as shown in Table 1) was mixed with DMSO solution at a volume ratio of 1:3, diluted to prepare a source plate of a 384-well microplate. Then 0.01 μl of the compound was transferred via an ECHO liquid dispenser from the source plate to a 384-well Greiner 784076 plate, and 5 microliters of a buffer composed of 50 mM HEPES, pH 7.4, 150 mM NaCl, 1 mM CHAPS (the buffer solution contains Recombinant human Lp-PLA2 enzyme at a concentration of 4 nM or 110 pM) was added to each well on the plate. The plate was centrifuged at 500 rpm for 10 seconds. After 30 minutes of pre-incubation, 5 microliters of the above buffer solution was added to a 384-well Greiner784076 plate, and the plate was centrifuged at 500 rpm for 10 seconds.
# [2] = molecular target: T2, Lp-PLA2 enzyme in human plasma (Homo sapiens, UniProt Q13093); test: Human plasma Lp-PLA2 assay (Thio-PAF assay); type: biochemical; settings: mixed human plasma; 2-thio-PAF substrate with CPM; 30 min pre-incubation; fluorescence ex 380/em 485; read-out: Thio-PAF (pIC50) (converted)
# T2 construct: from tissue; host or cells: pooled (mixed) human plasma
# T2 sequence (Q13093 22-441): T1 sequence (Q13093 22-441)
# Description: (2) Human Plasma Lp-PLA2 Assay (Also Known as Thio-PAF Assay) The human plasma assay was conducted using the sulphatide analog of PAF (phosphatidylcholine), which is hydrolyzed to produce phospholipids containing free sulfhydryl groups, subjected to Michael addition with CPM to generate fluorescence-enhancing maleimide. Continuous quantitative analysis of thiol could be conducted by detecting the fluorescence intensity. This assay can be used to detect the inhibitory activity of the Lp-PLA2 inhibitor on the Lp-PLA2 enzyme in human plasma. Assay Method: The compound to be tested (as shown in Table 2) was mixed with a DMSO solution in a volume ratio of (1:3), and diluted to prepare a source plate of a 384-well microplate. Then 0.01 μl of the compound was transferred via an ECHO liquid dispenser from the source plate to a 384-well Greiner 784076 low-volume plate, and 8 μl of pre-aliquoted and frozen mixed human plasma was added. The plate was centrifuged at 500 rpm for 10 seconds. After a 30 min pre-incubation, 2 μl of a substrate solution, and containing 2.5 mM 2-thio-PAF (a solution in ethanol), 32 μM CPM (a solution in DMSO) and a buffer of 3.2 mM N-ethylmaleimide (NEM) (a buffer solution consisting of 50 mM HEPES, pH 7.4, 150 mM NaCl, 1 mM CHAPS) was added by a BRAVO liquid handling station to a 384-well Greiner 784076 low-volume plate. After 2 min, the reaction was quenched with 5 μl of 5% trifluoroacetic acid. After the plate was incubated at room temperature for 40 min in a dark place, the fluorescence intensity was read at ex 380/em 485 with an Envision microplate reader, and the XL fitting model in Excel was used to perform the curve analysis and QC analysis to calculate pIC50.
SMILES,IC50 [1] [nM],IC50 [2] [nM]
O=c1nc(OCc2cc(F)c(Oc3ccc(C(F)(F)F)nc3)c(F)c2)cc2n1CC[C@@H]1COCCN21 [Compound 6],0.1,7.94
O=c1nc(OCc2cc(F)c(Oc3ccc(C(F)(F)F)cc3)c(F)c2)cc2n1CC[C@@H]1COCCN21 [Compound 11],0.0794,7.94
O=c1nc(OCc2cc(F)c(F)cc2F)cc2n1CC[C@@H]1COCCN21 [Compound 3],31.6,316
O=c1nc(OCc2cc(F)c(Oc3cccc(C(F)(F)F)c3)c(F)c2)cc2n1CC[C@@H]1COCCN21 [Compound 9],0.0631,6.31
O=c1nc(OCc2cc(F)c(Oc3ccc(C(F)(F)F)c(Cl)c3)c(F)c2)cc2n1CC[C@@H]1COCCN21 [Compound 12],0.0501,6.31
Cc1ncc(Oc2c(F)cc(COc3cc4n(c(=O)n3)CC[C@@H]3COCCN43)cc2F)cn1 [Compound 8],0.316,15.8
O=c1nc(OCc2cc(F)c(F)c(F)c2)cc2n1CC[C@@H]1COCCN21 [Compound 1],3.98,63.1
O=c1nc(OCc2cc(F)c(Oc3ccnc(C(F)(F)F)c3)c(F)c2)cc2n1CC[C@@H]1COCCN21 [Compound 4],0.0794,6.31
O=c1nc(OCc2cccc(F)c2F)cc2n1CC[C@@H]1COCCN21 [Compound 2],25.1,251
O=c1nc(OCc2cc(F)c(Oc3cccc(OC(F)(F)F)c3)c(F)c2)cc2n1CC[C@@H]1COCCN21 [Compound 10],0.0794,10
Cc1ccc(Oc2c(F)cc(COc3cc4n(c(=O)n3)CC[C@@H]3COCCN43)cc2F)cn1 [Compound 7],0.0631,7.94
Cc1cc(Oc2c(F)cc(COc3cc4n(c(=O)n3)CC[C@@H]3COCCN43)cc2F)ccn1 [Compound 5],0.0631,3.16

# The next lines start with the values.
IC50 [1] [nM],IC50 [2] [nM],SMILES
0.126,12.6,O=c1nc(OCc2cc(F)c(Oc3ccnc(C(F)(F)F)c3)c(F)c2)cc2n1CC[C@H]1COCCN21 [Compound 15]
31.6,316,O=c1nc(OCc2cccc(F)c2F)cc2n1CC[C@H]1COCCN21 [Compound 14]
0.126,12.6,O=c1nc(OCc2cc(F)c(Oc3ccc(C(F)(F)F)nc3)c(F)c2)cc2n1CC[C@H]1COCCN21 [Compound 17]
0.1,12.6,O=c1nc(OCc2cc(F)c(Oc3ccc(C(F)(F)F)cc3)c(F)c2)cc2n1CC[C@H]1COCCN21 [Compound 20]
0.0794,7.94,Cc1cc(Oc2c(F)cc(COc3cc4n(c(=O)n3)CC[C@H]3COCCN43)cc2F)ccn1 [Compound 16]
0.1,10,Cc1ccc(Oc2c(F)cc(COc3cc4n(c(=O)n3)CC[C@H]3COCCN43)cc2F)cn1 [Compound 18]
6.31,79.4,O=c1nc(OCc2cc(F)c(F)c(F)c2)cc2n1CC[C@H]1COCCN21 [Compound 13]
0.0794,7.94,O=c1nc(OCc2cc(F)c(Oc3cccc(C(F)(F)F)c3)c(F)c2)cc2n1CC[C@H]1COCCN21 [Compound 19]
